# Laboratory results as given in PMC10870114 (Clinical Cancer Research, 2023).
# Tests used:
# [1] = system: locally advanced rectal cancer; experiment: Tumor response; type: in vivo, human
# [2] = system: patients with advanced solid tumors; settings: cited from earlier work
# [3] = system: patients with locally advanced rectal cancer; experiment: Treatment-emergent adverse events; type: in vivo, human
# [4] = Overall, peposertib 50-250 mg + RT + capecitabine, n = 19
# [5] = peposertib 50 mg + RT + capecitabine, n = 1
# [6] = peposertib 100 mg + RT + capecitabine, n = 6
# [7] = peposertib 150 mg + RT + capecitabine, n = 6
# [8] = peposertib 250 mg + RT + capecitabine, n = 6
smiles,measurement,setting,value
COc1ccc([C@@H](O)c2cc(-c3ncnc4cc(N5CCOCC5)ccc34)c(F)cc2Cl)nn1 [Peposertib],cCR rate,"[1]; 8 weeks after CRT completion, all cohorts, n = 3 of 19",15.8%
same,Clinical complete response: Responders,[1]; [4],3 (15.8) n (%)
same,Clinical response: Complete response,[1]; [4],3 (15.8) n (%)
same,Clinical response: Incomplete response,[1]; [4],4 (21.1) n (%)
same,Clinical response: Near-complete response,[1]; [4],8 (42.1) n (%)
same,Clinical response: Progressive disease,[1]; [4],0 (0) n (%)
same,Composite endpoint cCR/pCR: Responders,[1]; [4],1 (5.3) n (%)
same,Pathologic complete response: Responders,[1]; [4],0 (0) n (%)
same,Composite endpoint cCR/pCR rate,"[1]; all cohorts, one of 19 patients (100-mg cohort)",5.3%
same,Patients achieving pCR,[1]; of the nine patients who opted for surgery,none
same,Clinical complete response: Responders,[1]; [5],0 (0) n (%)
same,Clinical response: Complete response,[1]; [5],0 (0) n (%)
same,Clinical response: Incomplete response,[1]; [5],0 (0) n (%)
same,Clinical response: Near-complete response,[1]; [5],1 (100) n (%)
same,Clinical response: Progressive disease,[1]; [5],0 (0) n (%)
same,Composite endpoint cCR/pCR: Responders,[1]; [5],0 (0) n (%)
same,Pathologic complete response: Responders,[1]; [5],0 (0) n (%)
same,Clinical complete response: Responders,[1]; [6],1 (16.7) n (%)
same,Clinical response: Complete response,[1]; [6],1 (16.7) n (%)
same,Clinical response: Incomplete response,[1]; [6],1 (16.7) n (%)
same,Clinical response: Near-complete response,[1]; [6],2 (33.3) n (%)
same,Clinical response: Progressive disease,[1]; [6],0 (0) n (%)
same,Composite endpoint cCR/pCR: Responders,[1]; [6],1 (16.7) n (%)
same,Pathologic complete response: Responders,[1]; [6],0 (0) n (%)
same,Clinical complete response: Responders,[1]; [7],1 (16.7) n (%)
same,Clinical response: Complete response,[1]; [7],1 (16.7) n (%)
same,Clinical response: Incomplete response,[1]; [7],2 (33.3) n (%)
same,Clinical response: Near-complete response,[1]; [7],2 (33.3) n (%)
same,Clinical response: Progressive disease,[1]; [7],0 (0) n (%)
same,Composite endpoint cCR/pCR: Responders,[1]; [7],0 (0) n (%)
same,Pathologic complete response: Responders,[1]; [7],0 (0) n (%)
same,Clinical complete response: Responders,[1]; [8],1 (16.7) n (%)
same,Clinical response: Complete response,[1]; [8],1 (16.7) n (%)
same,Clinical response: Incomplete response,[1]; [8],1 (16.7) n (%)
same,Clinical response: Near-complete response,[1]; [8],3 (50.0) n (%)
same,Clinical response: Progressive disease,[1]; [8],0 (0) n (%)
same,Composite endpoint cCR/pCR: Responders,[1]; [8],0 (0) n (%)
same,Pathologic complete response: Responders,[1]; [8],0 (0) n (%)
same,Toxicity of peposertib monotherapy,[2],no significant toxicity
same,Dose recommended for further evaluation,[2]; monotherapy,400 mg twice daily
same,Grade 4 TEAE: lymphocyte count decrease,[3]; 100-mg cohort,1 n
same,Grade 4 TEAE: lymphopenia,[3]; 100-mg cohort,1 n
same,Grade 4 TEAE: lymphopenia,[3]; 150-mg cohort,1 n
same,Grade 4 TEAE: enterocolitis,[3]; 250-mg cohort,1 n
same,Grade 4 TEAE: leukopenia and lymphocyte count decrease,[3]; 250-mg cohort,1 n
same,Patients with any Capecitabine-related TEAE,[3]; [4],19 (100) n (%)
same,Patients with any Capecitabine-related grade ≥3 TEAE,[3]; [4],10 (53) n (%)
same,Patients with any Capecitabine-related grade ≥4 TEAE,[3]; [4],5 (26) n (%)
same,Patients with any Capecitabine-related serious TEAE,[3]; [4],5 (26) n (%)
same,Patients with any Grade ≥3 TEAE,[3]; [4],14 (74) n (%)
same,Patients with any Grade ≥4 TEAE,[3]; [4],5 (26) n (%)
same,Patients with any Peposertib-related TEAE,[3]; [4],17 (90) n (%)
same,Patients with any Peposertib-related grade ≥ 3TEAE,[3]; [4],13 (68) n (%)
same,Patients with any Peposertib-related grade ≥4 TEAE,[3]; [4],5 (26) n (%)
same,Patients with any Peposertib-related serious TEAE,[3]; [4],6 (32) n (%)
same,Patients with any RT-related TEAE,[3]; [4],19 (100) n (%)
same,Patients with any RT-related grade ≥3 TEAE,[3]; [4],9 (47) n (%)
same,Patients with any RT-related grade ≥4 TEAE,[3]; [4],4 (21) n (%)
same,Patients with any RT-related serious TEAE,[3]; [4],5 (26) n (%)
same,Patients with any Serious TEAE,[3]; [4],7 (37) n (%)
same,Patients with any TEAE,[3]; [4],19 (100) n (%)
same,Patients with any TEAE leading to death,[3]; [4],0 n (%)
same,Patients with any TEAE leading to permanent discontinuation of RT,[3]; [4],2 (11) n (%)
same,Patients with any TEAE leading to permanent discontinuation of capecitabine,[3]; [4],3 (15.8) n (%)
same,Patients with any TEAE leading to permanent discontinuation of peposertib,[3]; [4],4 (21) n (%)
same,Patients with any TEAE leading to study discontinuation,[3]; [4],0 n (%)
same,Most frequently reported TEAE: fatigue,"[3]; across all cohorts, n = 9",47.4%
same,Most frequently reported TEAE: nausea,"[3]; across all cohorts, n = 9",47.4%
same,Most frequently reported TEAE: proctitis,"[3]; across all cohorts, n = 9",47.4%
same,Most frequently reported TEAE: diarrhea,"[3]; across all cohorts, n = 15",78.9%
same,Patients with grade ≥3 TEAE,"[3]; all cohorts, 14 of 19 patients",73.7%
same,Grade ≥3 TEAE: diarrhea,"[3]; all cohorts, n = 19",15.8%
same,Grade ≥3 TEAE: enterocolitis,"[3]; all cohorts, n = 19",15.8%
same,Grade ≥3 TEAE: lymphocyte count decreased,"[3]; all cohorts, n = 19",36.8%
same,Grade ≥3 TEAE: lymphopenia,"[3]; all cohorts, n = 19",21.1%
same,Patients with any Capecitabine-related TEAE,[3]; [5],1 (100) n (%)
same,Patients with any Capecitabine-related grade ≥3 TEAE,[3]; [5],0 (0) n (%)
same,Patients with any Capecitabine-related grade ≥4 TEAE,[3]; [5],0 (0) n (%)
same,Patients with any Capecitabine-related serious TEAE,[3]; [5],0 n (%)
same,Patients with any Grade ≥3 TEAE,[3]; [5],0 (0) n (%)
same,Patients with any Grade ≥4 TEAE,[3]; [5],0 (0) n (%)
same,Patients with any Peposertib-related TEAE,[3]; [5],1 (100) n (%)
